Measurements taken from patent publication US20250382274A1, “COMPOSITIONS AND METHODS FOR THE TREATMENT OF PARKINSON'S AND GAUCHER DISEASE” (CHILDREN'S HOSPITAL MEDICAL CENTER, priority 2024, published 2025).
pEC50: −log10 of the molar value.

Assays:
[1] = target: T1, GCase (purified enzyme, Velaglucerase alfa, VPRIV) (Homo sapiens, UniProt P04062); assay: GCase AC50 enzyme activity assay; format: biochemical; conditions: pH 5.6, 4-MuGlu substrate, compounds 0-40 μM
T1 construct: purchased Shire Human Genetic Therapies, Cambridge, MA
T1 sequence (P04062 40-536): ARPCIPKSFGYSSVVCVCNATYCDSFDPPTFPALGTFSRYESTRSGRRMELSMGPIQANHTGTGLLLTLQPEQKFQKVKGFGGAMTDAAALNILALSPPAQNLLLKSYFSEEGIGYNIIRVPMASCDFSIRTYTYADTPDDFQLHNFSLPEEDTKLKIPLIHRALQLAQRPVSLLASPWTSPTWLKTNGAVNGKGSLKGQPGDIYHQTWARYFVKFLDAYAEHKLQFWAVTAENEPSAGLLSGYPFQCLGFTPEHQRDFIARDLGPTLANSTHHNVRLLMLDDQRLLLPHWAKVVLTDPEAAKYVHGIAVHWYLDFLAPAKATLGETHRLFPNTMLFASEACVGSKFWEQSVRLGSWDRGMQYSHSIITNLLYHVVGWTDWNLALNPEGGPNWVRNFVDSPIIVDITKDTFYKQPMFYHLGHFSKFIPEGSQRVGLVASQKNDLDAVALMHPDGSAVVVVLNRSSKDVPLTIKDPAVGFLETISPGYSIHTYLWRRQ
Procedure: An in vitro enzyme assay was performed through a dose response curve of Compounds (0-40 μM) with purified enzyme (Velaglucerase alfa, VPRIV®, Shire Human Genetic Therapies, Cambridge, MA) in citric phosphate [0.025 mM] buffer (pH 5.6) where 4-MuGlu [4 mM] was the substrate. Compounds were pre-incubated with the enzyme for 40 minutes at room temperature prior to substrate addition, and then incubated at 37° C. for 1 hour. AC50 represents the concentration of a Compound that produces 50% of its maximal response in the in vitro GCase activity assay.
(§1) GCase activities were determined fluorometrically with 4-MuGlu. The relative fluorescence unit (RFU) of 4-MuGlu standard curve is generated with the plate reader (M5, Molecular Devise) as 1 n mole=56500 RFU. The human mutant Gaucher fibroblasts were purchased from Coriell Institute (Camden, NJ): N370/ΔGG (Cat #: GM00852) and L444P/L444P (cat #: GM00877)

[2] = target: T2, GCase in healthy human fibroblasts (Homo sapiens, UniProt P04062); assay: EC50 cell-based assay for GCase, healthy human fibroblasts (GCase cell); conditions: 5 days compound treatment (0-20 μM)
T2 construct: Healthy human fibroblasts (GCase cell); endogenous in cells; host or cells: healthy human fibroblasts
T2 sequence (P04062 40-536): T1 sequence (P04062 40-536)
Procedure: In cell assays, GCase activity measurements were carried out on harvested cell pellets on the 5th day of Compound treatment. Healthy human fibroblasts (GCase cell), mutant N370/ΔGG (GCase N370S) or L444P/L444P (GCase L444P) were incubated with the Compound (0-20 μM) for 5 days with 15% fetal bovine serum (FBS) in Dulbecco's Modified Eagle Medium (DMEM) in 100 mm culture dishes. Fresh Medium with Compound were replaced every other day. On the 5th day of Compound treatment, harvested cell pellets were lysed with 1% Na-taurocholate (Tc) and 1% Triton X-100 (Tx), and mixed with the reaction buffer which contained 0.025 mM Citric phosphate buffer (pH 5.6), 0.25% Tc/Tx and 4 mM 4-MuGlu, then incubated at 37° C. for 1 hour. EC50 represents the concentration of a Compound that produces 50% of its maximal response in the cell-based GCase activity assay.
as §1

AC50 [1] [µM]	pEC50 [2]	SMILES
< 10	> 5.00	CN(CC1CCCO1)C(=O)c1ccccc1OCC(=O)Nc1ccc(Br)cc1 (stereo not drawn) [Compound 1, 2-((4-bromophenylcarbamoyl)methoxy)-N-((tetrahydrofuran-2-yl)methyl)-N-methylbenzamide]
< 10	> 5.00	O=C(Nc1ccc(Br)cc1)c1cc2cccc(C(=O)NCC3CCCO3)c2o1 (stereo not drawn) [Compound 3, N2-(4-bromophenyl)-N7-((tetrahydrofuran-2-yl)methyl)benzofuran-2,7-dicarboxamide]
< 10	> 5.00	COc1ccc(NC(=O)c2cc3cccc(C(=O)NCC4CCCO4)c3o2)cc1 (stereo not drawn) [Compound 5, N7-((tetrahydrofuran-2-yl)methyl)-N2-(4-methoxyphenyl)benzofuran-2,7-dicarboxamide]
< 10	> 5.00	COc1c(C(=O)Nc2ccc(Br)cc2)oc2c(C(=O)NCC3CCCO3)cccc12 (stereo not drawn) [Compound 6, N2-(4-bromophenyl)-N7-((tetrahydrofuran-2-yl)methyl)-3-methoxybenzofuran-2,7-dicarboxamide]
< 10	> 5.00	COc1ccc(NC(=O)C(C)(C)Oc2ccccc2C(=O)N2CCOCC2)cc1 [Compound 7]
< 10	> 5.00	CN(C)Cc1ccc(NC(=O)c2nc3cccc(C(=O)NCC4CCCO4)c3o2)cc1 (stereo not drawn) [Compound 9, N2-(4-((dimethylamino)methyl)phenyl)-N7-((tetrahydrofuran-2-yl)methyl)benzo[d]oxazole-2,7-dicarboxamide]
< 10	> 5.00	COc1ccc(NC(=O)Cc2nnc(NCC3CCCO3)c3ccccc23)cc1 (stereo not drawn) [Compound 11, 2-(1-((tetrahydrofuran-2-yl)methylamino)phthalazin-4-yl)-N-(4-methoxyphenyl)acetamide]
< 10	> 5.00	COc1ccc2[nH]c(COc3ccccc3C(=O)NCC3CCCO3)nc2c1 (stereo not drawn) [Compound 12, 2-((5-methoxy-1H-benzo[d]imidazol-2-yl)methoxy)-N-((tetrahydrofuran-2-yl)methyl)benzamide]
< 10	> 5.00	COc1ccc(NC(=O)c2nc3cc(F)cc(C(=O)NCC4CCO4)c3o2)cc1 (stereo not drawn) [Compound 13, 5-fluoro-N2-(4-methoxyphenyl)-N7-(oxetan-2-ylmethyl)-1,3-benzoxazole-2,7-dicarboxamide]
< 10	–	COc1ccc(NC(=O)c2nc3cc(F)cc(C(=O)NCC4CCO4)c3o2)cc1F (stereo not drawn) [Compound 14, 5-fluoro-N2-(3-fluoro-4-methoxy-phenyl)-N7-(oxetan-2-ylmethyl)-1,3-benzoxazole-2,7-dicarboxamide]
< 10	–	COc1ccc(NC(=O)c2nc3c(F)ccc(C(=O)NCC4CCO4)c3o2)cc1 (stereo not drawn) [Compound 15, 4-fluoro-N2-(4-methoxyphenyl)-N7-(oxetan-2-ylmethyl)-1,3-benzoxazole-2,7-dicarboxamide]
< 10	–	O=C(Nc1ccc(CN2CCOCC2)cc1)c1nc2cccc(C(=O)NCC3CCO3)c2o1 (stereo not drawn) [Compound 16, N2-[4-(morpholinomethyl)phenyl]-N7-(oxetan-2-ylmethyl)-1,3-benzoxazole-2,7-dicarboxamide]
< 10	> 5.00	CC(C)(Oc1ccccc1C(=O)NCC1CCO1)C(=O)NC1CCN(CC(F)F)CC1 (stereo not drawn) [Compound 17, 2-[2-[[1-(2,2-difluoroethyl)-4-piperidyl]amino]-1,1-dimethyl-2-oxo-ethoxy]-N-(oxetan-2-ylmethyl)benzamide]
< 10	> 5.00	CC(C)(Oc1ccccc1C(=O)NCC1CCO1)C(=O)NC1CCN(C2COC2)CC1 (stereo not drawn) [Compound 18, 2-[1,1-dimethyl-2-[[1-(oxetan-3-yl)-4-piperidyl]amino]-2-oxo-ethoxy]-N-(oxetan-2-ylmethyl)benzamide]
< 10	> 5.00	O=C(NC1CCOCC1)c1nc2cc(F)cc(C(=O)NCC3CCO3)c2o1 (stereo not drawn) [Compound 19, 5-fluoro-N2-(tetrahydro-2H-pyran-4-yl)-N7-((oxetan-2-yl)methyl)benzo[d]oxazole-2,7-dicarboxamide]
< 10	> 5.00	Cc1cc(NC(=O)c2nc3cc(F)cc(C(=O)NCC4CCO4)c3o2)ccn1 (stereo not drawn) [Compound 20, 5-fluoro-N2-(2-methylpyridin-4-yl)-N7-((oxetan-2-yl)methyl)benzo[d]oxazole-2,7-dicarboxamide]
< 10	> 5.00	O=C(Nc1ccc(Cl)cc1)c1nc2cc(F)cc(C(=O)NCC3CCO3)c2o1 (stereo not drawn) [Compound 21, N2-(4-chlorophenyl)-5-fluoro-N7-((oxetan-2-yl)methyl)benzo[d]oxazole-2,7-dicarboxamide]
< 10	> 5.00	O=C(Nc1ccc(OC(F)(F)F)cc1)c1nc2cc(F)cc(C(=O)NCC3CCO3)c2o1 (stereo not drawn) [Compound 22, 5-fluoro-N7-((oxetan-2-yl)methyl)-N2-(4-(trifluoromethoxy)phenyl)benzo[d]oxazole-2,7-dicarboxamide]
< 10	> 5.00	CN(CC1CCO1)C(=O)c1cc(F)ccc1OC(C)(C)C(=O)NC1CCOCC1 (stereo not drawn) [Compound 23, 2-(2-(tetrahydro-2H-pyran-4-ylcarbamoyl)propan-2-yloxy)-5-fluoro-N-methyl-N-((oxetan-2-yl)methyl)benzamide]
< 10	> 5.00	CN1CCC(NC(=O)C(C)(C)Oc2ccc(F)cc2C(=O)NCC2CCO2)C(F)(F)C1 (stereo not drawn) [Compound 24, 2-(2-(3,3-difluoro-1-methylpiperidin-4-ylcarbamoyl)propan-2-yloxy)-5-fluoro-N-((oxetan-2-yl)methyl)benzamide]
< 10	> 5.00	O=C(NCC1CCO1)c1cc(F)ccc1OCc1nc2cc(Cl)ccc2[nH]1 (stereo not drawn) [Compound 25, 2-((6-chloro-1H-benzo[d]imidazol-2-yl)methoxy)-5-fluoro-N-((oxetan-2-yl)methyl)benzamide]
< 10	> 5.00	CC(C)(Oc1ccc(F)cc1C(=O)NCC1CCO1)C(=O)NCCN1CCOCC1 (stereo not drawn) [Compound 27, 2-[1,1-dimethyl-2-(2-morpholinoethylamino)-2-oxo-ethoxy]-5-fluoro-N-(oxetan-2-ylmethyl)benzamide]
10 to 100	> 5.00	O=C(NC1CCC(F)(F)CC1)c1nc2cc(F)cc(C(=O)NCC3CCO3)c2o1 (stereo not drawn) [Compound 28, N2-(4,4-difluorocyclohexyl)-5-fluoro-N7-(oxetan-2-ylmethyl)benzo[d]oxazole-2,7-dicarboxamide]
10 to 100	–	O=C(NC1CCN(CC(F)(F)F)CC1)c1nc2cc(F)cc(C(=O)NCC3CCO3)c2o1 (stereo not drawn) [Compound 29, 5-fluoro-N7-(oxetan-2-ylmethyl)-N2-(1-(2,2,2-trifluoroethyl)piperidin-4-yl)benzo[d]oxazole-2,7-dicarboxamide]
< 10	> 5.00	COc1ccc(NC(=O)N2Cc3cccc(C(=O)NCC4CCO4)c3C2)cc1 (stereo not drawn) [Compound 30, N2-(4-methoxyphenyl)-N4-((oxetan-2-yl)methyl)isoindoline-2,4-dicarboxamide]
< 10	–	CC(C)(Oc1ccc(F)cc1C(=O)NCC1CCO1)C(=O)Nc1ccc(OC(F)F)cc1 (stereo not drawn) [Compound 31, 2-((1-((4-(difluoromethoxy)phenyl)amino)-2-methyl-1-oxopropan-2-yl)oxy)-5-fluoro-N-(oxetan-2-ylmethyl)benzamide]
< 10	> 5.00	COc1ccc(NC(=O)C(C)(C)Oc2ccc(F)cc2C(=O)NCC2CCCO2)cc1 (stereo not drawn) [Compound 33, 2-(2-(4-methoxyphenylcarbamoyl)propan-2-yloxy)-5-fluoro-N-((tetrahydrofuran-2-yl)methyl)benzamide]
< 10	> 5.00	CN(C)Cc1ccc(NC(=O)C(C)(C)Oc2ccccc2C(=O)NCC2CCCO2)cc1 (stereo not drawn) [Compound 34, 2-(2-(4-((dimethylamino)methyl)phenylcarbamoyl)propan-2-yloxy)-N-((tetrahydrofuran-2-yl)methyl)benzamide]
